The results in this text go back to US10851099B2, “Dipeptide piperidine derivatives” (OncoArendi Therapeutics S.A., priority 2018, dated 2020).

The target of assay [1] is T1, recombinant human arginase 1 (Homo sapiens, UniProt P05089).
T1 construct: made in house; host or cells: E. coli
T1 sequence (P05089 1-322): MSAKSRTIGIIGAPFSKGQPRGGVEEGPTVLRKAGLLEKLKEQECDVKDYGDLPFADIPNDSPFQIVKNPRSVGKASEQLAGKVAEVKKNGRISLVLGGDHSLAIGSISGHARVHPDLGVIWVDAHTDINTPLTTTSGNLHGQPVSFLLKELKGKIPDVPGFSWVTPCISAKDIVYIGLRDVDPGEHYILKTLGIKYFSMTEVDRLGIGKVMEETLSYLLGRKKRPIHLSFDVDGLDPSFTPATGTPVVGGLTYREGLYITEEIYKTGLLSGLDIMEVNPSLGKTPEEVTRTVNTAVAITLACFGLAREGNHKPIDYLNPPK
The experiment in a line: Human arginase inhibition assay (colorimetric urea detection), arginase 1. Conditions: IC50 class, hydrochloride salts, 1 h at 37° C., pH 7.4, 10 mM L-arginine, 200 μM MnCl2, read-out: Activity Class (ARG I). It counts as biochemical. How it is done: (§1) The inhibitory activities of the compounds of the invention were assessed using recombinant human arginase 1 and 2. Both enzymes were biosynthesized using a prokaryotic expression system (E. coli) and purified by fast protein liquid chromatography (FPLC). The compounds were screened in 96-well plates at the total reaction volume of 100 μL. Briefly, recombinant enzymes were incubated with the tested compounds for 1 h at 37° C. in the reaction buffer (100 mM sodium phosphate buffer, 130 mM NaCl, 1 mg/mL BSA, pH 7.4) containing substrate (10 mM L-arginine hydrochloride) and cofactor (200 μM MnCl2). The assay is based on the detection of urea, which is generated during the conversion of L-arginine into L-ornithine catalyzed by ARG1 or ARG2. The colorimetrically detectable product was developed by adding a mixture of reagent A (4 mM oPA, 50 mM boric acid, 1 M sulfuric acid, 0.03% Brij-35) and reagent B (4 mM NED, 50 mM boric acid, 1 M sulfuric acid, 0.03% Brij-35) in equal proportions. The absorbance for each well was measured at 515 nm and the enzyme inhibition was calculated. The urea production in the absence of any tested compound was considered as maximal enzyme activity. The absorbance at the absence of arginase (background) was subtracted from all the values. Normalized values were analyzed using GraphPad Prism 7.0 software by plotting inhibition curves and determining the IC50 values.
(§2) The inhibitory activity toward humane arginase 1 of the hydrochloride salts of the exemplary compounds according to the invention is presented in Table 5.

Assay [2] concerns the target T2, recombinant human arginase 2 (Homo sapiens, UniProt P78540).
T2 construct: made in house; host or cells: E. coli
T2 sequence (P78540 23-354): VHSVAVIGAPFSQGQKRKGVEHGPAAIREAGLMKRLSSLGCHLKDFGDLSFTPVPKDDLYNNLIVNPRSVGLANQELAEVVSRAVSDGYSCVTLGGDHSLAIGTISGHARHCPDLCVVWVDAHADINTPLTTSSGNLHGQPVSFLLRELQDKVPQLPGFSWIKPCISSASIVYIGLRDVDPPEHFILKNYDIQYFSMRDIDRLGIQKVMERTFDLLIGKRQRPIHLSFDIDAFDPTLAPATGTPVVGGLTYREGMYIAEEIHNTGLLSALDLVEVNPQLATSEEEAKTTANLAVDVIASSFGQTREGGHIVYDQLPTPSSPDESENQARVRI
The experiment in a line: Human arginase inhibition assay (colorimetric urea detection), arginase 2. The class given is biochemical. The note with it: IC50 class, hydrochloride salts, 1 h at 37° C., pH 7.4, 10 mM L-arginine, 200 μM MnCl2, read-out: Activity Class (ARG II). As for the experimental part:
as §1, §2
The inhibitory activity toward humane arginase 2 of the hydrochloride salts of the selected exemplary compounds according to the invention is presented in Table 6.

The structures appear in SMILES notation. Where a name gives a salt, the structure may show the parent alone.

Regarding `C[C@H](N)C(=O)N1C[C@@H](CCB(O)O)C[C@](N)(C(=O)O)C1` [Example 1, (3R,5S)-1-(L-Alanyl)-3-amino-5-(2-boronoethyl)piperidine-3-carboxylic acid dihydrochloride], the IC50 in assay [1] is 0.25 to 0.499 µM; in assay [2] it was 0.5 to 0.999 µM.

In the case of `NCC(=O)N1C[C@@H](CCB(O)O)C[C@](N)(C(=O)O)C1` [Example 3, (3R,5S)-3-Amino-5-(2-boronoethyl)-1-glycylpiperidine-3-carboxylic acid dihydrochloride], the IC50 in assay [1] is 0.001 to 0.249 µM; in assay [2], 0.5 to 0.999 µM.

On to `N[C@@H](CO)C(=O)N1C[C@@H](CCB(O)O)C[C@](N)(C(=O)O)C1` [Example 6, (3R,5S)-1-(L-Seryl)-3-amino-5-(2-boronoethyl)piperidine-3-carboxylic acid dihydrochloride], for which the IC50 is 0.001 to 0.249 µM in assay [1] and 0.5 to 0.999 µM in assay [2].

Consider `NCCCC[C@H](N)C(=O)N1C[C@@H](CCB(O)O)C[C@](N)(C(=O)O)C1` [Example 7, (3R,5S)-1-(L-Lysyl)-3-amino-5-(2-boronoethyl)piperidine-3-carboxylic acid trihydrochloride], for which the figures for the IC50 in assay [1] and in assay [2] were 0.001 to 0.249 µM and 0.5 to 0.999 µM, respectively.

As to `N[C@@H](Cc1ccccc1)C(=O)N1C[C@@H](CCB(O)O)C[C@](N)(C(=O)O)C1` [Example 11, (3R,5S)-1-(L-Phenylalanyl)-3-amino-5-(2-boronoethyl)piperidine-3-carboxylic acid dihydrochloride], the IC50 is 0.001 to 0.249 µM in assay [1] and 1 to 10 µM in assay [2].

With `N[C@@H](Cc1c[nH]cn1)C(=O)N1C[C@@H](CCB(O)O)C[C@](N)(C(=O)O)C1` [Example 13, (3R,5S)-1-(L-Histidyl)-3-amino-5-(2-boronoethyl)piperidine-3-carboxylic acid trihydrochloride], the results for the IC50 in assay [1] and in assay [2] were 0.001 to 0.249 µM and 0.5 to 0.999 µM, respectively.

`N=C(N)NCCC[C@H](N)C(=O)N1C[C@@H](CCB(O)O)C[C@](N)(C(=O)O)C1` [Example 20, (3R,5S)-1-(L-Arginyl)-3-amino-5-(2-boronoethyl)piperidine-3-carboxylic acid trihydrochloride]: the IC50 in assay [1] was in the range of 0.001 to 0.249 µM; in assay [2], 0.25 to 0.499 µM.

For `C[C@H](N)C(=O)N1C[C@@H](CCB(O)O)C[C@](N)(C(=O)O)[C@@H]1C` [Example 30, (2S,3R,5S)-1-(L-alanyl)-3-amino-5-(2-boronoethyl)-2-methylpiperidine-3-carboxylic acid dihydrochloride], the IC50 in assay [1] is 0.001 to 0.249 µM; in assay [2], 0.5 to 0.999 µM.
